Data taken from US20050266106A1, “Use of fermented wheat germ extract as anti-inflammatory agent” (priority 2002, published 2005).

System: adjuvant arthritis (AA)
Experiment: histological studies of joints of AA rats
Format: in vivo
Procedure: The affected joints of the right hind foot pad together with the epiphyses of the bones and the surrounding fibrous and muscular tissues were fixed in buffered neutral 4% formalin. Decalcification was performed by using EDTA and the samples were embedded into paraffin. 8 μm thin longitudinal sections were cut and the sections were stained with hemotoxiline (H) and eosine (E). In the selected positive control and in the treated cases an immunoperoxidase reaction was performed to show CD4 and CD8 positive T-lymphocytes. The used antibody was the product of Santa Cruz (Santa Cruz, Calif., USA), applied in 1:100 dilution.
There was no significant difference between the groups receiving 24-hour and 14-day pretreatment, respectively.

## C[C@@H]1C[C@H]2[C@@H]3CCC4=CC(=O)C=C[C@]4(C)[C@@]3(F)[C@@H](O)C[C@]2(C)[C@@]1(O)C(=O)CO [Dexamethasone]
2 × 0.05 mg/kg/day, 14-day pretreatment
  Histological grade (average 1 to 3) of inflammatory infiltrates: 1.2
2 × 0.05 mg/kg/day, 24-hour pretreatment
  Histological grade (average 1 to 3) of inflammatory infiltrates: 1.4

## COc1ccc2c(c1)c(CC(=O)O)c(C)n2C(=O)c1ccc(Cl)cc1 [Indomethacin]
2 × 0.5 mg/kg/day, 14-day pretreatment
  Histological grade (average 1 to 3) of inflammatory infiltrates: 1.2
2 × 0.5 mg/kg/day, 24-hour pretreatment
  Histological grade (average 1 to 3) of inflammatory infiltrates: 1.0
